Reference: PubChem BioAssay (NCI)
“And” between values parts separate entries of the source, which are not always exact repeats. Equal values may be shown once.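 Five concentrations, 48 hours, 96-well plates. GI50: concentration for 50% inhibition of growth. The concentration for full growth arrest is given as TGI.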 *1 amine or outer side, *2 acyl side, *3 side chain or, on linkers, in order; H or OH if unused. Where a SMILES comes first, the peptide text is derived from it. Bridges are numbered along the chain shown (N, C = ends). [ ]: non-standard residue; d: D form. The star is where a group is joined. ξ: configuration not given here. Phe(3,5-F2) = N[C@@H](Cc1cc(F)cc(F)c1)C(=O)O; ξThr(3S) = C[C@H](O[*:3])C(N[*:1])C(=O)[*:2]; Pro(4R-Me) = C[C@H]1CN[C@H](C(=O)O)C1; Pip = O=C(O)[C@@H]1CCCCN1; X1 = Cc1ccc(N*)c(F)c1; CO = O=C([*:1])[*:2]

What was measured:
Test in all cases: DTP human tumour cell line panel, 48 h
MOLT-4 leukemia = system: MOLT-4 leukemia
UO-31 renal = system: UO-31 renal
KM12 colon = system: KM12 colon
SNB-75 CNS = system: SNB-75 CNS
NCI-H226 lung = system: NCI-H226 lung
HCT-116 colon = system: HCT-116 colon
HL-60(TB) leukemia = system: HL-60(TB) leukemia
EKVX NSCLC = system: EKVX NSCLC
NCI-H460 lung = system: NCI-H460 lung
SF-539 CNS = system: SF-539 CNS
SK-MEL-2 melanoma = system: SK-MEL-2 melanoma
HCC-2998 colon = system: HCC-2998 colon
SK-OV-3 ovarian = system: SK-OV-3 ovarian
SNB-19 CNS = system: SNB-19 CNS
RPMI-8226 leukemia = system: RPMI-8226 leukemia
SR leukemia = system: SR leukemia
MDA-MB-435 = system: MDA-MB-435
K-562 leukemia = system: K-562 leukemia
IGROV1 ovarian = system: IGROV1 ovarian
OVCAR-5 ovarian = system: OVCAR-5 ovarian
CAKI-1 renal = system: CAKI-1 renal
SK-MEL-28 melanoma = system: SK-MEL-28 melanoma
U251 CNS = system: U251 CNS
NCI-H522 lung = system: NCI-H522 lung
HT29 colon = system: HT29 colon
OVCAR-8 ovarian = system: OVCAR-8 ovarian
ACHN renal = system: ACHN renal
HS 578T breast = system: HS 578T breast
A549 NSCLC = system: A549 NSCLC
UACC-62 melanoma = system: UACC-62 melanoma
786-0 renal = system: 786-0 renal
DU-145 prostate = system: DU-145 prostate
PC-3 prostate = system: PC-3 prostate
TK-10 renal = system: TK-10 renal
NCI-H23 lung = system: NCI-H23 lung
OVCAR-4 ovarian = system: OVCAR-4 ovarian
HCT-15 colon = system: HCT-15 colon
CCRF-CEM leukemia = system: CCRF-CEM leukemia
T-47D breast = system: T-47D breast
COLO 205 colon = system: COLO 205 colon
SN12C renal = system: SN12C renal
UACC-257 melanoma = system: UACC-257 melanoma
A498 renal = system: A498 renal
LOX IMVI melanoma = system: LOX IMVI melanoma
M14 melanoma = system: M14 melanoma
HOP-62 NSCLC = system: HOP-62 NSCLC
MALME-3M melanoma = system: MALME-3M melanoma
SW-620 colon = system: SW-620 colon
SF-295 CNS = system: SF-295 CNS
SF-268 CNS = system: SF-268 CNS
SK-MEL-5 melanoma = system: SK-MEL-5 melanoma
OVCAR-3 ovarian = system: OVCAR-3 ovarian
HOP-92 NSCLC = system: HOP-92 NSCLC
NCI/ADR-RES ovarian = system: NCI/ADR-RES ovarian
MCF7 breast = system: MCF7 breast
MDA-MB-231 breast = system: MDA-MB-231 breast
BT-549 breast = system: BT-549 breast
RXF 393 renal = system: RXF 393 renal

Cc1ccc(NC(=O)N[C@@H](Cc2cc(F)cc(F)c2)C(=O)NC2C(=O)N3CCC[C@H]3C(=O)N3CCCC[C@H]3C(=O)N[C@@H](C)C(=O)N3C[C@H](C)C[C@H]3C(=O)O[C@H]2C)c(F)c1 (stereo partly drawn) ({X1-CO}-[Phe(3,5-F2)][ξThr(3S)]P[Pip]A[Pro(4R-Me)]; ester 2-C)
GI50 (MOLT-4 leukemia): 545 nM and 669 nM | TGI (MOLT-4 leukemia): 25800 nM and 22900 nM | GI50 (UO-31 renal): 585 nM and 456 nM | TGI (UO-31 renal): 50000 nM and > 100000 nM | GI50 (KM12 colon): 533 nM and 384 nM | TGI (KM12 colon): 23500 nM and 24300 nM | GI50 (SNB-75 CNS): 289 nM | TGI (SNB-75 CNS): 50000 nM | GI50 (NCI-H226 lung): 272 nM and 368 nM | TGI (NCI-H226 lung): 40500 nM and 7750 nM | GI50 (HCT-116 colon): 266 nM and 65.3 nM | TGI (HCT-116 colon): 7470 nM and 11100 nM | GI50 (HL-60(TB) leukemia): 213 nM and 47.4 nM | TGI (HL-60(TB) leukemia): 8610 nM and 2050 nM | GI50 (EKVX NSCLC): 252 nM and 377 nM | TGI (EKVX NSCLC): 50000 nM and > 100000 nM | GI50 (NCI-H460 lung): 220 nM and 222 nM | TGI (NCI-H460 lung): 50000 nM and 21000 nM | GI50 (SF-539 CNS): 696 nM and 709 nM | TGI (SF-539 CNS): 11100 nM and 16900 nM | GI50 (SK-MEL-2 melanoma): 198 nM and 164 nM | TGI (SK-MEL-2 melanoma): 7580 nM and 921 nM | GI50 (HCC-2998 colon): 255 nM and 390 nM | TGI (HCC-2998 colon): 9170 nM and 10800 nM | GI50 (SK-OV-3 ovarian): 225 nM and 360 nM | TGI (SK-OV-3 ovarian): 17400 nM and 7040 nM | GI50 (SNB-19 CNS): 208 nM and 187 nM | TGI (SNB-19 CNS): 50000 nM and > 100000 nM | GI50 (RPMI-8226 leukemia): 119 nM and 38 nM | TGI (RPMI-8226 leukemia): 6250 nM and 1300 nM | GI50 (SR leukemia): 334 nM and 626 nM | TGI (SR leukemia): 12100 nM and 21600 nM | GI50 (MDA-MB-435): 230 nM and 117 nM | TGI (MDA-MB-435): 12300 nM and 14600 nM | GI50 (K-562 leukemia): 134 nM and 43.7 nM | TGI (K-562 leukemia): 50000 nM and > 100000 nM | GI50 (IGROV1 ovarian): 2470 nM and 828 nM | TGI (IGROV1 ovarian): 40400 nM and > 100000 nM | GI50 (OVCAR-5 ovarian): 275 nM and 506 nM | TGI (OVCAR-5 ovarian): 9740 nM and 16000 nM | GI50 (CAKI-1 renal): 210 nM and 288 nM | TGI (CAKI-1 renal): 50000 nM and > 100000 nM | GI50 (SK-MEL-28 melanoma): 467 nM and 709 nM | TGI (SK-MEL-28 melanoma): 13800 nM and 18400 nM | GI50 (U251 CNS): 210 nM and 336 nM | TGI (U251 CNS): 50000 nM and > 100000 nM | GI50 (NCI-H522 lung): 211 nM and 119 nM | TGI (NCI-H522 lung): 8500 nM and 10700 nM | GI50 (HT29 colon): 276 nM and 302 nM | TGI (HT29 colon): 10200 nM and 10100 nM | GI50 (OVCAR-8 ovarian): 194 nM and 64.6 nM | TGI (OVCAR-8 ovarian): 50000 nM and > 100000 nM | GI50 (ACHN renal): 321 nM and 528 nM | TGI (ACHN renal): 50000 nM and > 100000 nM | GI50 (HS 578T breast): 394 nM | TGI (HS 578T breast): 50000 nM and 8560 nM | GI50 (A549 NSCLC): 223 nM and 640 nM | TGI (A549 NSCLC): 50000 nM and > 100000 nM | GI50 (UACC-62 melanoma): 247 nM and 451 nM | TGI (UACC-62 melanoma): 10700 nM and 19300 nM | GI50 (786-0 renal): 422 nM and 633 nM | TGI (786-0 renal): 50000 nM and > 100000 nM | GI50 (DU-145 prostate): 349 nM and 147 nM | TGI (DU-145 prostate): 50000 nM and > 100000 nM | GI50 (PC-3 prostate): 181 nM and 111 nM | TGI (PC-3 prostate): 50000 nM and > 100000 nM | GI50 (TK-10 renal): 385 nM and 791 nM | TGI (TK-10 renal): 50000 nM and 42700 nM | GI50 (NCI-H23 lung): 228 nM | TGI (NCI-H23 lung): 39400 nM | GI50 (OVCAR-4 ovarian): 268 nM and 98.9 nM | TGI (OVCAR-4 ovarian): 50000 nM and > 100000 nM | GI50 (HCT-15 colon): 231 nM and 357 nM | TGI (HCT-15 colon): 10000 nM and 14900 nM | GI50 (CCRF-CEM leukemia): 236 nM and 127 nM | TGI (CCRF-CEM leukemia): 50000 nM and 30100 nM | GI50 (T-47D breast): 222 nM and 314 nM | TGI (T-47D breast): 50000 nM and 18000 nM | GI50 (COLO 205 colon): 124 nM and 156 nM | TGI (COLO 205 colon): 338 nM and 496 nM | GI50 (SN12C renal): 171 nM and 303 nM | TGI (SN12C renal): 50000 nM and > 100000 nM | GI50 (UACC-257 melanoma): 191 nM and 316 nM | TGI (UACC-257 melanoma): 7580 nM and 7520 nM | GI50 (A498 renal): 5140 nM and 950 nM | TGI (A498 renal): 41200 nM and 10200 nM | GI50 (LOX IMVI melanoma): 131 nM and 425 nM | TGI (LOX IMVI melanoma): 6950 nM and 24400 nM | GI50 (M14 melanoma): 297 nM and 245 nM | TGI (M14 melanoma): 9860 nM and 16400 nM | GI50 (HOP-62 NSCLC): 235 nM and 322 nM | TGI (HOP-62 NSCLC): 50000 nM and 46300 nM | GI50 (MALME-3M melanoma): 410 nM and 561 nM | TGI (MALME-3M melanoma): 17100 nM and 19100 nM | GI50 (SW-620 colon): 433 nM and 483 nM | TGI (SW-620 colon): 50000 nM and > 100000 nM | GI50 (SF-295 CNS): 200 nM and 240 nM | TGI (SF-295 CNS): 11500 nM and 3580 nM | GI50 (SF-268 CNS): 393 nM and 446 nM | TGI (SF-268 CNS): 50000 nM and 48600 nM | GI50 (SK-MEL-5 melanoma): 199 nM and 397 nM | TGI (SK-MEL-5 melanoma): 7290 nM and 7900 nM | GI50 (OVCAR-3 ovarian): 360 nM and 312 nM | TGI (OVCAR-3 ovarian): 44900 nM and 13200 nM | GI50 (HOP-92 NSCLC): 163 nM and 251 nM | TGI (HOP-92 NSCLC): 9010 nM and 3050 nM | GI50 (NCI/ADR-RES ovarian): 1730 nM and 1700 nM | TGI (NCI/ADR-RES ovarian): 50000 nM and > 100000 nM | GI50 (MCF7 breast): 206 nM and 195 nM | TGI (MCF7 breast): 50000 nM and 53500 nM | GI50 (MDA-MB-231 breast): 166 nM and 279 nM | TGI (MDA-MB-231 breast): 1840 nM and 12800 nM | GI50 (BT-549 breast): 283 nM and 260 nM | TGI (BT-549 breast): 12000 nM and 11800 nM | GI50 (RXF 393 renal): 2870 nM and 778 nM | TGI (RXF 393 renal): 17500 nM and 9160 nM
